# Article PMC7049213, “Nerylneryl diphosphate is the precursor of serrulatane, viscidane and cembrane-type diterpenoids in Eremophila species” (BMC Plant Biology, 2020)
# Tests used:
# Assay in all cases: co-expression with SlCPT2 in E. coli and N. benthamiana, GC-MS
# Assay type in all cases: cell-based
# Conditions in all cases: NNPP formed in cells by SlCPT2; E. coli 18 °C, 48 h
# ElTPS3 = molecular target: T1, ElTPS3 (Eremophila lucida, UniProt A0A6G9KVC7)
# T1 construct: full length in N. benthamiana; TPS-a class I
# T1 sequence (A0A6G9KVC7 entry or part of it): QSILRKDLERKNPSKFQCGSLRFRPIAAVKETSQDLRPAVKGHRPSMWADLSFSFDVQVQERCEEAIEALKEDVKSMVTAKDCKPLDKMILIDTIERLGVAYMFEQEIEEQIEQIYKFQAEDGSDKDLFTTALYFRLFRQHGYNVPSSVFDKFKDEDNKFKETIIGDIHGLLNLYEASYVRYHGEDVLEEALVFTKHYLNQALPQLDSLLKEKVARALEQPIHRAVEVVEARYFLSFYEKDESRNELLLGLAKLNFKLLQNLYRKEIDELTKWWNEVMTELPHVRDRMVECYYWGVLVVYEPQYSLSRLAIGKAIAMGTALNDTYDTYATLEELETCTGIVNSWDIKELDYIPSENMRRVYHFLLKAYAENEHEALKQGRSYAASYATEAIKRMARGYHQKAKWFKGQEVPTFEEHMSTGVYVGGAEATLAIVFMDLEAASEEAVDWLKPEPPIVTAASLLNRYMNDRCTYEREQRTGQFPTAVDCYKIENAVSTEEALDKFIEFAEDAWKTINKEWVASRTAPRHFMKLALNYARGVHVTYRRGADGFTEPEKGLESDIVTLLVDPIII
# EdtTPS4 = molecular target: T2, EdtTPS4 (Eremophila denticulata, UniProt A0A6G9KV06)
# T2 construct: full length in N. benthamiana; TPS-a class I
# T2 sequence (A0A6G9KV06 entry or part of it): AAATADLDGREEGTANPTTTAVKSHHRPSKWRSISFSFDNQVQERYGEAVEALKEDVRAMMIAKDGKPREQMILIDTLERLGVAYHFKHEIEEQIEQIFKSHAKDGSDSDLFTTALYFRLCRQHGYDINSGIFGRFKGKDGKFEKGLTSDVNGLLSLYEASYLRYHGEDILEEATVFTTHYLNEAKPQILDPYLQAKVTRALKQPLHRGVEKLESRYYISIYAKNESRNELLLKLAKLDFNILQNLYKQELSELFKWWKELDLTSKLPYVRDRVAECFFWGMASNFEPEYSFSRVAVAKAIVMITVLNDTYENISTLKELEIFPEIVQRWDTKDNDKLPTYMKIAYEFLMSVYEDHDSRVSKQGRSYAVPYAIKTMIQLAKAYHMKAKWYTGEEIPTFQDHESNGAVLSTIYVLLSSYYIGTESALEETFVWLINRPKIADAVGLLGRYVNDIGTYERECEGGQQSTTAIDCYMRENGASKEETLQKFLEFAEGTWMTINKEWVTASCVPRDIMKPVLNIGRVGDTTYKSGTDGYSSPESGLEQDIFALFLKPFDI
# ElTPS31 = molecular target: T3, ElTPS31 (Eremophila lucida, UniProt A0A6G9KSS8)
# T3 construct: full length in N. benthamiana; TPS-b class I
# T3 sequence (A0A6G9KSS8 entry or part of it): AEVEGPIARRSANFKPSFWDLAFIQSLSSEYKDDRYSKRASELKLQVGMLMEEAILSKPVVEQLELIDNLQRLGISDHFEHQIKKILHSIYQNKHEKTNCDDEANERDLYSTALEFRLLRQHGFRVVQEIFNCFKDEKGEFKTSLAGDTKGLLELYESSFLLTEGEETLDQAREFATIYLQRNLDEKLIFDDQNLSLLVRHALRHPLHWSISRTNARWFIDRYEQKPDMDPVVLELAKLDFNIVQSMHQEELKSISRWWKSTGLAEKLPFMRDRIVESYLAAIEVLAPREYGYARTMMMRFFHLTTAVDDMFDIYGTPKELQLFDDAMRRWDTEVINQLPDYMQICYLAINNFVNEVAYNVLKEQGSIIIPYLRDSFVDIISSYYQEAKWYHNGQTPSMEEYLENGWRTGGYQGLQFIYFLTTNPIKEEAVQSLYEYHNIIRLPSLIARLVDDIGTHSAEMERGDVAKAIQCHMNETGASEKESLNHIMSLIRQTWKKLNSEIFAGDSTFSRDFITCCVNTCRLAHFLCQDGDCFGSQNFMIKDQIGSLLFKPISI
# EdTPS22 = molecular target: T4, EdTPS22 (Eremophila drummondii, UniProt A0A6G9KSU3)
# T4 construct: full length in N. benthamiana; TPS-a class I
# T4 sequence (A0A6G9KSU3 entry or part of it): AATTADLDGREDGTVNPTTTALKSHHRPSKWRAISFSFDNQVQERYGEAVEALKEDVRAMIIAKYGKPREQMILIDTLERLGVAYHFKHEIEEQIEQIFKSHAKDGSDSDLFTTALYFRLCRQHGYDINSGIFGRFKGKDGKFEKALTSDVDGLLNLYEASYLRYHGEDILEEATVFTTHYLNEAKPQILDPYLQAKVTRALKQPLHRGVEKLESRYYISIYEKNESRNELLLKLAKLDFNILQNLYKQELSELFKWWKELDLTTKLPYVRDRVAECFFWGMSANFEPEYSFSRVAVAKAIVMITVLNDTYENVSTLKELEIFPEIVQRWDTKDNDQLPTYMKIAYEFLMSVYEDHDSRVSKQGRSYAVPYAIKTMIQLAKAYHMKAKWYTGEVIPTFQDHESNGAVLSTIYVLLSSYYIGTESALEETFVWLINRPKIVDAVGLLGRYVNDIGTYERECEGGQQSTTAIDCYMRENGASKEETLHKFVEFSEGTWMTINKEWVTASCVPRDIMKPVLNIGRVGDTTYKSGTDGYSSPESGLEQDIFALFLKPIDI
smiles,measurement,setting,value
CC(C)=CCC/C(C)=C\CC/C(C)=C\CC/C(C)=C\COP(=O)(O)OP(=O)(O)O [nerylneryl diphosphate],"co-expression with SlCPT2 in E. coli and N. benthamiana, GC-MS",ElTPS3,"co-expression of either one of ElTPS3, ElTPS31, EdtTPS4 or EdTPS22 with NNPP-forming SlCPT2"
same,"co-expression with SlCPT2 in E. coli and N. benthamiana, GC-MS",EdtTPS4,"co-expression of either one of ElTPS3, ElTPS31, EdtTPS4 or EdTPS22 with NNPP-forming SlCPT2"
same,"co-expression with SlCPT2 in E. coli and N. benthamiana, GC-MS",ElTPS31,"co-expression of either one of ElTPS3, ElTPS31, EdtTPS4 or EdTPS22 with NNPP-forming SlCPT2"
same,"co-expression with SlCPT2 in E. coli and N. benthamiana, GC-MS",EdTPS22,"co-expression of either one of ElTPS3, ElTPS31, EdtTPS4 or EdTPS22 with NNPP-forming SlCPT2"
